Patent US20180071242A1, “SUBSTITUTED ACYLANILIDES AND METHODS OF USE THEREOF” (University of Tennessee Research Foundation, priority 2006, published 2018)

Assays:
[1] = molecular target: T1, CYP2C9 (Homo sapiens, UniProt P11712); test: CYP inhibition screening, recombinant enzyme (fluorescent-based) assay; assay type: in vitro ADME; settings: human, 30 min
T1 construct: purchased Gentest, BD Biosciences

[2] = molecular target: T2, MR (Rattus norvegicus, UniProt P22199); test: Transient transfection luciferase transactivation assay in HEK-293 cells; assay type: cell-based; settings: 1 nM
T2 construct: expressed in transfected cells; host or cells: HEK-293
T2 sequence (P22199 1-981): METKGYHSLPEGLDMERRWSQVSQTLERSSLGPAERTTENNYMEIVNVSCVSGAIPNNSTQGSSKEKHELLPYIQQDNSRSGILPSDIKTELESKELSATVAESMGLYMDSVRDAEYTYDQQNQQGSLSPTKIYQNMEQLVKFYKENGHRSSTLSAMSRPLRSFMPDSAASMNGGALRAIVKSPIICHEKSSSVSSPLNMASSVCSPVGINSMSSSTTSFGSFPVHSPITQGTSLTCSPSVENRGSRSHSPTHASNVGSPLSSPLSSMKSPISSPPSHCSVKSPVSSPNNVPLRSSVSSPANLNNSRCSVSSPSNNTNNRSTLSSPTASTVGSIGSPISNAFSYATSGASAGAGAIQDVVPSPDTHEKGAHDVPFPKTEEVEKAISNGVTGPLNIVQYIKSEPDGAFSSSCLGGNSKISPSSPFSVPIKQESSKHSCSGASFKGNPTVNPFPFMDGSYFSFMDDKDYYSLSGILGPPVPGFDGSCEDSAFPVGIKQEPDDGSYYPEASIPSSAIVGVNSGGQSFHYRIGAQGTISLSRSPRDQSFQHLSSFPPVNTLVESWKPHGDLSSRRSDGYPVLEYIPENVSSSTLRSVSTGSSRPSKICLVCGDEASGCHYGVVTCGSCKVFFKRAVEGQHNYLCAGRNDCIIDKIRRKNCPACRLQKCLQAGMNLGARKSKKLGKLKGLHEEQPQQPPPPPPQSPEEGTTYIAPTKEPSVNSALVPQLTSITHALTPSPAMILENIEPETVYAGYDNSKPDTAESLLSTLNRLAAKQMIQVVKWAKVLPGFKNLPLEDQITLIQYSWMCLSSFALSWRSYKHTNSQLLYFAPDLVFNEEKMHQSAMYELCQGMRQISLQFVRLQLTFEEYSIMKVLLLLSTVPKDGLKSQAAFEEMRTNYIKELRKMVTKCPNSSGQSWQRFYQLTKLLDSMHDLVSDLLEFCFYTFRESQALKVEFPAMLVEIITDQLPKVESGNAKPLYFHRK

[3] = test system: orchidectomized (ORX) male Sprague-Dawley rats; test: Anabolic and androgenic activity in castrated (ORX) male rats; assay type: in vivo, rat; settings: maximally stimulated
Protocol: Anabolic and androgenic efficacy of compound of formula (I) administered by daily oral gavage were tested. The S-isomer of compound (I) [S-(I)] was synthesized and tested as described herein.
The test article for this study was weighed and dissolved in 10% DMSO (Fischer) diluted with PEG 300 (Acros Organics, NJ) for preparation of the appropriate dosage concentrations. The animals were housed in groups of 2 to 3 animals per cage. Animals were randomly assigned to one of seven groups consisting of 4 to 5 animals per group. Control groups (intact and ORX) were administered vehicle daily. S-(I) was administered via oral gavage at doses of 0.01, 0.03, 0.1, 0.3, 0.75, and 1 mg/day to both intact and ORX groups. Where appropriate, animals were castrated on day one of the study. Treatment with S-(I) began nine days post ORX and was administered daily via oral gavage for fourteen days.
The animals were sacrificed under anesthesia (ketamine/xyalzine, 87:13 mg/kg) and body weights were recorded. In addition, ventral prostate, seminal vesicles, and levator ani muscle were removed, individually weighed, normalized to body weight, and expressed as a percentage of intact control. Student's T-test was used to compare individual dose groups to the intact control group. Significance was defined a priori as a P-value <0.05. Ventral prostate and seminal vesicle weights were evaluated as a measure of androgenic activity, whereas levator ani muscle weight was evaluated as a measure of anabolic activity. Blood was collected from the abdominal aorta, centrifuged, and sera were frozen at −80° C. prior to determination of serum hormone levels. Serum luteinizing hormone (LH) and follicle stimulating hormone (FSH) concentrations were determined.

[4] = molecular target: T3, GR (Rattus norvegicus, UniProt P06536); test: Transient transfection luciferase transactivation assay in HEK-293 cells; assay type: cell-based; settings: 1 nM
T3 construct: expressed in transfected cells; host or cells: HEK-293
T3 sequence (P06536 1-795): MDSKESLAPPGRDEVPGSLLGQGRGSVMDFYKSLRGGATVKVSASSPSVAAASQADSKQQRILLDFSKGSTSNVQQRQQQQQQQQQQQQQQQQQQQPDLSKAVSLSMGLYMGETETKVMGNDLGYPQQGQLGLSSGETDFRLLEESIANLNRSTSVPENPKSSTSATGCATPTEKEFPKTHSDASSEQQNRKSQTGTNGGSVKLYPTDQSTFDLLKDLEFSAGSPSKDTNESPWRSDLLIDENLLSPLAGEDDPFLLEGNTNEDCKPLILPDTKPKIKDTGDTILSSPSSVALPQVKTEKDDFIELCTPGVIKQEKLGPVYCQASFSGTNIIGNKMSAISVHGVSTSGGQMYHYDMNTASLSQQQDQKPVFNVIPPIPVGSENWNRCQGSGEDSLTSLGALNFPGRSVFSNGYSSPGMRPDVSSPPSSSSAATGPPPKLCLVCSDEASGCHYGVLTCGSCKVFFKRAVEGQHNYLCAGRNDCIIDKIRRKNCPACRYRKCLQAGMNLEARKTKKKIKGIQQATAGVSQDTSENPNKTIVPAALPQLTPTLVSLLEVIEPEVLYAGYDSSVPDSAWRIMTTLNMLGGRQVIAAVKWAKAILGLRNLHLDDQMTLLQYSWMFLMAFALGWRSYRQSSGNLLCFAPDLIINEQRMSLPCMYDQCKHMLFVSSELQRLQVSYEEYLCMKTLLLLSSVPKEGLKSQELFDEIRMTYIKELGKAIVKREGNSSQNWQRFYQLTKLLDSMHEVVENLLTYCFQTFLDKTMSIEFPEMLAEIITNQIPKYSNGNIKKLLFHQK

[5] = test system: DMD (−/−) UTRN (−/−) mice; test: Double knockout mouse model of Duchenne muscular dystrophy; settings: 10 mg/kg/day, data cumulative across the SARM groups
[6] = molecular target: T4, PR (Rattus norvegicus, UniProt Q63449); test: Transient transfection luciferase transactivation assay in HEK-293 cells; assay type: cell-based; settings: 1 nM
T4 construct: expressed in transfected cells; host or cells: HEK-293
T4 sequence (Q63449 1-923): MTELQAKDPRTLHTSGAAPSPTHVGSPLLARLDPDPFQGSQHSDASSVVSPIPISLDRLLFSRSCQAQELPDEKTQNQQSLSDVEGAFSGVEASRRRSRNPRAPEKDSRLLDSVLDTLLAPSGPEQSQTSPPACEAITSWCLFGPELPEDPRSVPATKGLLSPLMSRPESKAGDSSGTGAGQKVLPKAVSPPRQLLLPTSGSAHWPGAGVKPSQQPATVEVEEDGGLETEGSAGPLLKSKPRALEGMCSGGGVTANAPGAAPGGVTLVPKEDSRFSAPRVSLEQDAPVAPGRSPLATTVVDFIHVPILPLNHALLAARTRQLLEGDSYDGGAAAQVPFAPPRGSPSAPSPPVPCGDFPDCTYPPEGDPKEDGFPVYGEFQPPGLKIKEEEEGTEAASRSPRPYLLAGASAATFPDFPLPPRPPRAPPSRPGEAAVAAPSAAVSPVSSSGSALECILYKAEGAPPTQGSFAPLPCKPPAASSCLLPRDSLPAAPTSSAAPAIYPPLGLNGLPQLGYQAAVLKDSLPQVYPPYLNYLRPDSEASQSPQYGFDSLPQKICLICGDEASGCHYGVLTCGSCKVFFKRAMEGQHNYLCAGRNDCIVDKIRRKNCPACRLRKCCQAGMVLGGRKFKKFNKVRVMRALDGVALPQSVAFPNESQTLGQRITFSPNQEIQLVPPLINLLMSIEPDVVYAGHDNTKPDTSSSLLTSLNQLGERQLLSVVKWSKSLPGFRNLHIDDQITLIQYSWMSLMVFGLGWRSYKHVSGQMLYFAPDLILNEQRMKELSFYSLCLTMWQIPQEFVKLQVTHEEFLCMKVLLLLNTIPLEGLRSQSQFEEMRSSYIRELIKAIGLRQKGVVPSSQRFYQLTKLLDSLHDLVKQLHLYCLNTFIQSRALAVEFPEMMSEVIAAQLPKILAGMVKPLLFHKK

T1 sequence (P11712 whole entry): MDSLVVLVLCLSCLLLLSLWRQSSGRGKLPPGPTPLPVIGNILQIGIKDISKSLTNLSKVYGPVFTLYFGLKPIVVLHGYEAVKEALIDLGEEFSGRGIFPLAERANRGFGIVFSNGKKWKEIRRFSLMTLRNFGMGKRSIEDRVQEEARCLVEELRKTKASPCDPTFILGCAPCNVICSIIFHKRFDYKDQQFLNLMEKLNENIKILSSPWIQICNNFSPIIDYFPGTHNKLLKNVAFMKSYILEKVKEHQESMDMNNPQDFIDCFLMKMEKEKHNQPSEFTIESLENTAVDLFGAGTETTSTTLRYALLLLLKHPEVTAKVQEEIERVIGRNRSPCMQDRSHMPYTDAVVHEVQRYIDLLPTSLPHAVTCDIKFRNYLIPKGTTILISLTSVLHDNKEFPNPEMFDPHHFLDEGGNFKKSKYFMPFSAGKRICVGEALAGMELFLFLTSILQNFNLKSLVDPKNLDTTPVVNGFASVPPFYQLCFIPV

Q: `Nc1ccc(S(=O)(=O)Nc2ccnn2-c2ccccc2)cc1` [Sulfaphenazole, reference compound] was tested. Which “Inhibition of CYP2C9 activity (in words)” value [1] did it give?
A: potently inhibited

Q: `C[C@]12CCC(=O)C=C1CC[C@@H]1[C@@H]2[C@@H](O)C[C@]2(C=O)[C@@H](C(=O)CO)CC[C@@H]12` [aldosterone, reference compound] was tested. Which “MR activity induced by known ligand” value [2] did it give?
A: 60 fold

Q: For `CCC(=O)O[C@H]1CC[C@H]2[C@@H]3CCC4=CC(=O)CC[C@]4(C)[C@H]3CC[C@]12C` [Testosterone propionate, reference compound], which “Maximal stimulation of levator ani muscle weight” value [3] is on record?
A: 104%

Q: How did the “GR activity induced by known ligand” value [4] turn out when `C[C@@H]1C[C@H]2[C@@H]3CCC4=CC(=O)C=C[C@]4(C)[C@@]3(F)[C@@H](O)C[C@]2(C)[C@@]1(O)C(=O)CO` [dexamethasone, reference compound] was run?
A: 70 fold

Q: What does the source list for `C[C@](O)(COc1ccc(C#N)c(F)c1)C(=O)Nc1ccc(C#N)c(C(F)(F)F)c1` [S-(V)]?
A: Ability to be ambulatory (in words) [5]: enhanced the ability of these mice to be ambulatory; Deterioration of body weight (in words) [5]: delayed the deterioration; Deterioration of grip strength (in words) [5]: delayed the deterioration; Deterioration of lean mass (in words) [5]: delayed the deterioration

Q: With `CC(=O)[C@H]1CC[C@H]2[C@@H]3CCC4=CC(=O)CC[C@]4(C)[C@H]3CC[C@]12C` [progesterone, reference compound] as the molecule, how does the “PR activity induced by known ligand” value [6] read?
A: 23 fold

Q: How did the “Inhibition of PR activity, antagonist mode (in words)” value [6] turn out when `CC#C[C@]1(O)CC[C@H]2[C@@H]3CCC4=CC(=O)CCC4=C3[C@@H](c3ccc(N(C)C)cc3)C[C@@]21C` [RU486, reference compound] was run?
A: completely inhibited

Q: How did the “Ability to be ambulatory (in words)” value [5] turn out when `C[C@](O)(COc1ccc(C#N)cc1)C(=O)Nc1ccc(C#N)c(C(F)(F)F)c1` [S-(IV)] was run?
A: enhanced the ability of these mice to be ambulatory

Q: And the “Deterioration of body weight (in words)” value [5]?
A: delayed the deterioration

Q: And the “Deterioration of grip strength (in words)” value [5]?
A: delayed the deterioration

Q: What about the “Deterioration of lean mass (in words)” value [5] of the same molecule?
A: delayed the deterioration

Q: `CC(=O)Nc1ccc(OC[C@](C)(O)C(=O)Nc2ccc([N+](=O)[O-])c(C(F)(F)F)c2)cc1` [S-4, S-3-(4-acetylaminophenoxy)-2-hydroxy-2-methyl-N-(4-nitro-3-trifluoromethylphenyl)propanamide, reference compound] was tested. Which “Maximal stimulation of levator ani muscle weight” value [3] did it give?
A: 101%
